*1 amine or outer side, *2 acyl side, *3 side chain or, on linkers, in order; H or OH if unused. Where a SMILES comes first, the peptide text is derived from it. Side-chain parts run from the residue outwards. [ ]: non-standard residue; d: D form. The star is where a group is joined. dPhe(4-Cl) = N[C@H](Cc1ccc(Cl)cc1)C(=O)O; d2Nal = N[C@H](Cc1ccc2ccccc2c1)C(=O)O; Lys(iPr) = CC(C)NCCCC[C@H](N)C(=O)O; NMeY = CN[C@@H](Cc1ccc(O)cc1)C(=O)O; Ethylenediamine = C(CN[*:2])N[*:1]; d3Pal = N[C@H](Cc1cccnc1)C(=O)O; Nicotinoyl = O=C(c1cccnc1)*; 2Furoyl = O=C(c1ccco1)*; CO = O=C([*:1])[*:2]; azaGly = NNC(=O)O
Target: T1, LHRH receptor (Rattus norvegicus, UniProt P30969)
T1 construct: endogenous in cells
T1 sequence (P30969 1-327): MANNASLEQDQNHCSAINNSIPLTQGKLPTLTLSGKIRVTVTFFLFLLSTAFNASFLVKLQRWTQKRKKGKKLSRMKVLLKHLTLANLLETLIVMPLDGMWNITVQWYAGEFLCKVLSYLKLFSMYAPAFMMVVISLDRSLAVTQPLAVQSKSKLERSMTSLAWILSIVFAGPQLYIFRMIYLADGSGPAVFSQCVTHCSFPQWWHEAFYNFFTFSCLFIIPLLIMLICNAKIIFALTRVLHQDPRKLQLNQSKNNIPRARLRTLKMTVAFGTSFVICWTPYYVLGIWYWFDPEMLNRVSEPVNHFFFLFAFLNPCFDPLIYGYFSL
Assay: in vitro LHRH antagonist potency (pA2) against the agonist leuprolide
Format: cell-based
Conditions: negative logarithm of the antagonist concentration which shifts the response curve produced by the agonist leuprolide to two-fold higher concentration
How it was run: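 Functional antagonism against the agonist leuprolide. pA2 is the negative log of antagonist concentration that shifts the leuprolide response curve to twofold higher concentration.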

Structure (SMILES)	Kb
CC(=O)N[C@H](Cc1ccc2ccccc2c1)C(=O)N[C@H](Cc1ccc(Cl)cc1)C(=O)N[C@H](Cc1cccnc1)C(=O)N[C@@H](CO)C(=O)N(C)[C@@H](Cc1ccc(O)cc1)C(=O)N[C@H](CCCCNC(=O)NNC(=O)c1cccnc1)C(=O)N[C@@H](CC(C)C)C(=O)N[C@@H](CCCCNC(C)C)C(=O)N1CCC[C@H]1C(=O)N[C@H](C)C(N)=O [Example 3, NAc-D2Nal^1 -D4ClPhe^2 -D3Pal^3 -Ser^4 -NMeTyr^5 -DLys(N-epsilon-Azagly-Nicotinyl)^6 -Leu^7 -Lys(N-epsilon-Isopropyl)^8 -Pro^9 -DAla^10 NH2] (Ac-[d2Nal][dPhe(4-Cl)][d3Pal]S[NMeY][dK]([azaGly-Nicotinoyl])L[Lys(iPr)]P[dA]-NH2)	4.9 pM
CC(=O)N[C@H](Cc1ccc2ccccc2c1)C(=O)N[C@H](Cc1ccc(Cl)cc1)C(=O)N[C@H](Cc1cccnc1)C(=O)N[C@@H](CO)C(=O)N(C)[C@@H](Cc1ccc(O)cc1)C(=O)N[C@H](CCCCNC(=O)NNC(=O)c1ccco1)C(=O)N[C@@H](CC(C)C)C(=O)N[C@@H](CCCCNC(C)C)C(=O)N1CCC[C@H]1C(=O)N[C@H](C)C(N)=O [Example 2, NAc-D2Nal^1 -D4ClPhe^2 -D3Pal^3 -Ser^4 -NMeTyr^5 -DLys(N-epsilon-Azagly-2-Furoyl)^6 -Leu^7 -Lys(N-epsilon-Isopropyl)^8 -Pro^9 -DAla^10 NH2] (Ac-[d2Nal][dPhe(4-Cl)][d3Pal]S[NMeY][dK]([azaGly-2Furoyl])L[Lys(iPr)]P[dA]-NH2)	1.41 pM
CC(=O)N[C@H](Cc1ccc2ccccc2c1)C(=O)N[C@H](Cc1ccc(Cl)cc1)C(=O)N[C@H](Cc1cccnc1)C(=O)N[C@@H](CO)C(=O)N(C)[C@@H](Cc1ccc(O)cc1)C(=O)N[C@H](CCCCNC(=O)NCCNC(=O)c1ccco1)C(=O)N[C@@H](CC(C)C)C(=O)N[C@@H](CCCNC(=N)N)C(=O)N1CCC[C@H]1C(=O)N[C@H](C)C(N)=O [Example 36, NAc-D2Nal^1 -D4ClPhe^2 -D3Pal^3 -Ser^4 -NMeTyr^5 -DLys[N-epsilon-(N'-Carbonyl-Diaminoethane-N"-Furoyl)]^6 -Leu^7 -Arg^8 -Pro^9 -DAla^10 NH2] (Ac-[d2Nal][dPhe(4-Cl)][d3Pal]S[NMeY][dK]([CO-Ethylenediamine-2Furoyl])LRP[dA]-NH2)	10.7 pM
